Test results taken from PubChem BioAssay (NCI).
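Protocol summary: plate cells (96-well), add compound at 5 concentrations, incubate 48 h, interpolate endpoints linearly. Definition used: TGI = concentration required for complete inhibition of growth.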

Experiments:
Assay in all cases: NCI anticancer screen, dose series, 48 h
A498 renal = system: A498 renal
ACHN renal = system: ACHN renal
CCRF-CEM leukemia = system: CCRF-CEM leukemia
COLO 205 colon = system: COLO 205 colon
DMS 114 small cell lung = system: DMS 114 small cell lung
HCT-116 colon = system: HCT-116 colon
HL-60(TB) leukemia = system: HL-60(TB) leukemia
HOP-62 NSCLC = system: HOP-62 NSCLC
HOP-92 NSCLC = system: HOP-92 NSCLC
HT29 colon = system: HT29 colon
IGROV1 ovarian = system: IGROV1 ovarian
KM12 colon = system: KM12 colon
KM20L2 colon = system: KM20L2 colon
LXFL 529 NSCLC = system: LXFL 529 NSCLC
M14 melanoma = system: M14 melanoma
M19-MEL melanoma = system: M19-MEL melanoma
MALME-3M melanoma = system: MALME-3M melanoma
NCI-H23 lung = system: NCI-H23 lung
NCI-H460 lung = system: NCI-H460 lung
OVCAR-3 ovarian = system: OVCAR-3 ovarian
OVCAR-4 ovarian = system: OVCAR-4 ovarian
OVCAR-5 ovarian = system: OVCAR-5 ovarian
RPMI-8226 leukemia = system: RPMI-8226 leukemia
RXF 393 renal = system: RXF 393 renal
SF-268 CNS = system: SF-268 CNS
SF-295 CNS = system: SF-295 CNS
SF-539 CNS = system: SF-539 CNS
SK-MEL-2 melanoma = system: SK-MEL-2 melanoma
SK-MEL-28 melanoma = system: SK-MEL-28 melanoma
SK-OV-3 ovarian = system: SK-OV-3 ovarian
SNB-19 CNS = system: SNB-19 CNS
SNB-75 CNS = system: SNB-75 CNS
SNB-78 CNS = system: SNB-78 CNS
U251 CNS = system: U251 CNS
UACC-257 melanoma = system: UACC-257 melanoma
UACC-62 melanoma = system: UACC-62 melanoma
UO-31 renal = system: UO-31 renal
786-0 renal = system: 786-0 renal
A549 NSCLC = system: A549 NSCLC
BT-549 breast = system: BT-549 breast
CAKI-1 renal = system: CAKI-1 renal
DU-145 prostate = system: DU-145 prostate
EKVX NSCLC = system: EKVX NSCLC
HCC-2998 colon = system: HCC-2998 colon
HCT-15 colon = system: HCT-15 colon
HS 578T breast = system: HS 578T breast
K-562 leukemia = system: K-562 leukemia
LOX IMVI melanoma = system: LOX IMVI melanoma
MCF7 breast = system: MCF7 breast
MDA-MB-231 breast = system: MDA-MB-231 breast
MDA-MB-435 = system: MDA-MB-435
MDA-N = system: MDA-N
MOLT-4 leukemia = system: MOLT-4 leukemia
NCI-H226 lung = system: NCI-H226 lung
NCI-H522 lung = system: NCI-H522 lung
NCI/ADR-RES ovarian = system: NCI/ADR-RES ovarian
OVCAR-8 ovarian = system: OVCAR-8 ovarian
PC-3 prostate = system: PC-3 prostate
SK-MEL-5 melanoma = system: SK-MEL-5 melanoma
SN12C renal = system: SN12C renal
SR leukemia = system: SR leukemia
SW-620 colon = system: SW-620 colon
T-47D breast = system: T-47D breast
TK-10 renal = system: TK-10 renal

With `CCCCOP(=O)(OCCCC)/C(C#N)=C/c1ccco1` the TGI (A498 renal) was > 100 µM, the TGI (ACHN renal) was > 100 µM and the TGI (CCRF-CEM leukemia) was > 100 µM. The TGI (COLO 205 colon) was > 100 µM, the TGI (DMS 114 small cell lung) was > 100 µM and the TGI (HCT-116 colon) was > 100 µM. The TGI (HL-60(TB) leukemia) was > 100 µM, the TGI (HOP-62 NSCLC) was > 100 µM and the TGI (HOP-92 NSCLC) was > 100 µM. For the same compound, the TGI (HT29 colon) was > 100 µM, the TGI (IGROV1 ovarian) was > 100 µM and the TGI (KM12 colon) was > 100 µM. The TGI (KM20L2 colon) was > 100 µM, the TGI (LXFL 529 NSCLC) was > 100 µM and the TGI (M14 melanoma) was > 100 µM. For the same compound, the TGI (M19-MEL melanoma) was > 100 µM, the TGI (MALME-3M melanoma) was > 100 µM and the TGI (NCI-H23 lung) was > 100 µM. For the same compound, the TGI (NCI-H460 lung) was > 100 µM, the TGI (OVCAR-3 ovarian) was > 100 µM and the TGI (OVCAR-4 ovarian) was > 100 µM. For the same compound, the TGI (OVCAR-5 ovarian) was > 100 µM, the TGI (RPMI-8226 leukemia) was > 100 µM and the TGI (RXF 393 renal) was > 100 µM. For the same compound, the TGI (SF-268 CNS) was > 100 µM, the TGI (SF-295 CNS) was > 100 µM and the TGI (SF-539 CNS) was > 100 µM. For the same compound, the TGI (SK-MEL-2 melanoma) was > 100 µM, the TGI (SK-MEL-28 melanoma) was > 100 µM and the TGI (SK-OV-3 ovarian) was > 100 µM. The TGI (SNB-19 CNS) was > 100 µM, the TGI (SNB-75 CNS) was > 100 µM and the TGI (SNB-78 CNS) was > 100 µM. The TGI (U251 CNS) was > 100 µM, the TGI (UACC-257 melanoma) was > 100 µM and the TGI (UACC-62 melanoma) was > 100 µM. For the same compound, the TGI (UO-31 renal) was > 100 µM.
For `CC(=O)n1nc(-c2nc3ccccc3nc2Cl)cc1Cl`, the TGI (786-0 renal) was 78.8 µM, the TGI (A498 renal) was > 100 µM and the TGI (A549 NSCLC) was > 88.5 µM. It also gave a TGI (ACHN renal) of 28.5 µM, a TGI (BT-549 breast) of 28.8 µM and a TGI (CAKI-1 renal) of 21.6 µM. It also gave a TGI (CCRF-CEM leukemia) of 7.73 µM, a TGI (COLO 205 colon) of 33.2 µM and a TGI (DU-145 prostate) of 43.1 µM. The TGI (EKVX NSCLC) was 37.7 µM, the TGI (HCC-2998 colon) was > 100 µM and the TGI (HCT-116 colon) was 25.4 µM. It also gave a TGI (HCT-15 colon) of 57.3 µM, a TGI (HL-60(TB) leukemia) of 35 µM and a TGI (HOP-62 NSCLC) of 73.8 µM. The TGI (HOP-92 NSCLC) was > 100 µM, the TGI (HS 578T breast) was > 91.7 µM and the TGI (HT29 colon) was 51.9 µM. For the same compound, the TGI (IGROV1 ovarian) was > 100 µM, the TGI (K-562 leukemia) was > 53.2 µM and the TGI (KM12 colon) was 48.5 µM. For the same compound, the TGI (LOX IMVI melanoma) was 33.3 µM, the TGI (M14 melanoma) was 19.4 µM and the TGI (MALME-3M melanoma) was > 78.7 µM. For the same compound, the TGI (MCF7 breast) was > 82.6 µM, the TGI (MDA-MB-231 breast) was > 100 µM and the TGI (MDA-MB-435) was 19 µM. For the same compound, the TGI (MDA-N) was 24.2 µM, the TGI (MOLT-4 leukemia) was 14.3 µM and the TGI (NCI-H226 lung) was 30.8 µM. The TGI (NCI-H23 lung) was 49.6 µM, the TGI (NCI-H460 lung) was > 88.2 µM and the TGI (NCI-H522 lung) was 31.2 µM. It also gave a TGI (NCI/ADR-RES ovarian) of 55.8 µM, a TGI (OVCAR-3 ovarian) of 68.2 µM and a TGI (OVCAR-4 ovarian) of 53.3 µM. The TGI (OVCAR-5 ovarian) was > 92.3 µM, the TGI (OVCAR-8 ovarian) was 67.1 µM and the TGI (PC-3 prostate) was > 100 µM. The TGI (RPMI-8226 leukemia) was > 100 µM, the TGI (RXF 393 renal) was > 100 µM and the TGI (SF-268 CNS) was > 100 µM. For the same compound, the TGI (SF-295 CNS) was > 93.2 µM, the TGI (SF-539 CNS) was 10.1 µM and the TGI (SK-MEL-2 melanoma) was > 100 µM. For the same compound, the TGI (SK-MEL-28 melanoma) was > 86.3 µM, the TGI (SK-MEL-5 melanoma) was 16.1 µM and the TGI (SK-OV-3 ovarian) was > 77.7 µM. For the same compound, the TGI (SN12C renal) was > 65.9 µM, the TGI (SNB-19 CNS) was > 92 µM and the TGI (SNB-75 CNS) was 76.6 µM. For the same compound, the TGI (SR leukemia) was 13.3 µM, the TGI (SW-620 colon) was > 100 µM and the TGI (T-47D breast) was > 100 µM. The TGI (TK-10 renal) was > 100 µM, the TGI (U251 CNS) was > 77.6 µM and the TGI (UACC-257 melanoma) was > 100 µM. For the same compound, the TGI (UACC-62 melanoma) was > 100 µM and the TGI (UO-31 renal) was 4.79 µM.
